Experimental data reported in paper PMC5323493, “Synthesis and pre-clinical evaluation of a new class of high-affinity ^18F-labeled PSMA ligands for detection of prostate cancer by PET imaging” (European Journal of Nuclear Medicine and Molecular Imaging, 2016).
Where two headings read alike, the source gives them in different places. Marks after values point to notes of the source that are not given here. One block for each molecule: values may come before it.

Experiments:
[1] = test system: LNCaP xenograft tumor; details: cited from earlier work
[2] = test system: LNCaP xenograft tumor; assay: μPET/CT imaging of LNCaP xenograft tumor-bearing mice; assay type: in vivo; details: for Max. LNCaP Tumor Uptake Time p.i.: image derived; for Max. LNCaP Tumor Uptake: image derived calculation (ROI), at time of maximum uptake; for route of clearance: from μPET/CT images
Description: (§1) All animal studies were approved by the Institutional Animal Care and Use Committee of Weill Cornell Medicine and were undertaken in accordance with the guidelines set forth by the USPHS Policy on Humane Care and Use of Laboratory Animals. Animals were housed under standard conditions in approved facilities with 12-h light/dark cycles. Food and water was provided ad libitum throughout the course of the studies. Male inbred athymic nu/nu mice were purchased from The Jackson Laboratory. For inoculation in mice, LNCaP cells were suspended at 4 x 10^7 cells/mL in a 1:1 mixture of PBS:Matrigel (BD Biosciences). Each mouse was injected in the left flank with 0.25 mL of the cell suspension. The mice were imaged when the tumors reached approximately 200–400 mm^3, while biodistributions were conducted when tumors were in the range 100–400 mm^3.
Specific activity was greater than 190 GBq/μmol. The mice were imaged by μPET/CT (Inveon™; Siemens Medical Solutions, Inc.) at 1 h, 2 h, 4 h and 6 h p.i. ([^18F]fluorinated compounds) or 1 h and 3 h p.i. ([^68Ga]Ga-PSMA-HBED-CC). Total acquisition time was thirty minutes, and a CT scan was obtained either immediately before or immediately after the acquisition for both anatomical co-registration and attenuation correction. The data were reconstructed using the commercial Inveon™ software supplied by the vendor. Tumor uptake was estimated by drawing a region of interest (ROI).

[3] = biological target: T1, PSMA (Homo sapiens, UniProt Q04609); assay: competitive binding assay against 99mTc-MIP-1427 on LNCaP cells; details: non-radioactive ligands, 1 nM 99mTc-MIP-1427, 1 h
T1 construct: host or cells: LNCaP
Description: The human prostate cancer cell line, LNCaP, was obtained from the American Type Culture Collection. Cell culture supplies were from Invitrogen unless otherwise noted. LNCaP cells were maintained in RPMI-1640 medium supplemented with 10 % fetal bovine serum (Hyclone), 4 mM L-glutamine, 1 mM sodium pyruvate, 10 mM N-2-hydroxyethylpiperazine-N-2-ethanesulfonic acid (HEPES), 2.5 mg/mL D-glucose, and 50 μg/mL gentamicin in a humidified incubator at 37 °C/5 % CO2. Cells were removed from flasks for passage or for transfer to 12-well assay plates by incubating them with 0.25 % trypsin/ethylenediaminetetraacetic acid (EDTA).
The 50 % inhibition concentrations (IC50 ) values of the non-radioactive fluorine-containing ligands were determined by screening in a multi-concentration competitive binding assay against ^99mTc- ((7S,12S,16S)-1-(1-(carboxymethyl)-1H-imidazol-2-yl)-2-((1-(carboxymethyl)-1H-imidazol-2-yl)methyl)-9,14-dioxo-2,8,13,15-tetraazaoctadecane-7,12,16,18-tetracarboxylic acid technetium tricarbonyl complex; ^99mTc-MIP-1427) for binding to PSMA on LNCaP cells, according to methods previously described. The LNCaP cells were plated 48 hours prior to the experiment to achieve a density of approximately 5 x 10^5 cells/well (in triplicate) in RPMI-1640 medium supplemented with 0.25 % bovine serum albumin prior to performing the assay. LNCaP cells were incubated for 1 hour with 1 nM ^99mTc-MIP-1427 in serum-free RPMI-1640 medium in the presence of 1–10,000 nM test compounds. Radioactive incubation media was then removed by pipette and the cells were washed twice using 1 mL of ice-cold HEPES buffer. Cells were harvested from the plates and transferred to tubes for radioactive counting using a Packard Cobra II gamma counter. IC50 values were determined by non-linear regression using GraphPad Prism software.

[4] = test system: LNCaP xenograft tumor; assay: ex vivo biodistribution in LNCaP xenograft tumor-bearing mice; details: for tumor uptake / Max. LNCaP Tumor Uptake: n = 5; for tumor uptake relative to [68Ga]Ga-PSMA-HBED-CC: at the time of maximum tumor uptake; for Max. LNCaP Tumor Uptake Time p.i. / Max. LNCaP Tumor Uptake: biodistribution
Description: as §1
LNCaP xenograft tumor-bearing mice (n = 5 per time point) were injected via the tail vein with a bolus injection of 370 kBq (10 μCi) of either [^18F]RPS-040 or [^18F]RPS-041. The specific activity of the compounds was 341 GBq/μmol and 391 GBq/μmol, respectively. The mice were euthanized by asphyxiation under isofluorane at 1 h, 2 h and 4 h p.i. An additional set of mice (n = 5) was co-administered [^18F]RPS-040 (370 kBq; 10 μCi) and 2-PMPA (approx. 250 μg; 10 mg/kg) and sacrificed at 1 h p.i. to determine the uptake specificity. A full biodistribution study was conducted on all mice, and tissues were excised, weighed and counted in an automated γ-counter. Tissue time-activity values were expressed as percentage injected dose per gram of tissue (%ID/g). Statistical comparisons were performed using the standard Student’s t test for a 95 % confidence interval.

[5] = 1 h p.i., co-administered with 2-PMPA

T1 sequence (Q04609 whole entry): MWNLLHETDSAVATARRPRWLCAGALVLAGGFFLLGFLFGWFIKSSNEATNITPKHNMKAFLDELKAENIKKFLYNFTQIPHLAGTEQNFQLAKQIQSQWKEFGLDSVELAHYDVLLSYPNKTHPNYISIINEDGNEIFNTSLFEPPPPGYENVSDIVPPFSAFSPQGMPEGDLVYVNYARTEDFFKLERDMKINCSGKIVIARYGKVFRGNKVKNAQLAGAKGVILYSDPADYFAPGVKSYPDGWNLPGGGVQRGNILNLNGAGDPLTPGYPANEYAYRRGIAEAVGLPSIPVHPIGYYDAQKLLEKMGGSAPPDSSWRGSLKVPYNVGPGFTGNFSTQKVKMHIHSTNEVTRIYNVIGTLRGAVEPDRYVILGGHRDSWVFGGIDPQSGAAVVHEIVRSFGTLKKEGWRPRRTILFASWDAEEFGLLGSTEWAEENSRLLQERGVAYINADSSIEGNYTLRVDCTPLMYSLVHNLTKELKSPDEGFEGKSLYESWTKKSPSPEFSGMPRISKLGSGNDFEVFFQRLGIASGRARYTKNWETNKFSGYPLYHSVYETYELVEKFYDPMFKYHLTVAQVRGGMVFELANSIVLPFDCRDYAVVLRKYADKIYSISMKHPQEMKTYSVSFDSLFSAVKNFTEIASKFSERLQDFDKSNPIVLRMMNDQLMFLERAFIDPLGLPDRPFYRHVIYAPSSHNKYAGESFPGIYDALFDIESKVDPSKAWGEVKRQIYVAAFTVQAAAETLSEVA

IC50 [3]: 3.2 nM
Max. LNCaP Tumor Uptake [2]: 12.51 %ID/g
tumor-to-blood ratio ([4]; 1 h p.i.): 20.78 ± 7.87
tumor-to-blood ratio relative to [68Ga]Ga-PSMA-HBED-CC ([4]; 1 h p.i.): more than two-fold
tumor-to-kidney ratio relative to [68Ga]Ga-PSMA-HBED-CC ([4]; 1 h p.i.): twelve-fold greater
contrast (tumor-to-background) relative to [18F]RPS-040 ([4]; 2 h p.i.): two-fold greater
uptake in the kidneys ([4]; 2 h p.i.): 23.93 ± 5.45 %ID/g
uptake in the liver ([4]; 2 h p.i.): 2.51 ± 0.21 %ID/g
uptake in the spleen ([4]; 2 h p.i.): 1.13 ± 0.47 %ID/g
tumor-to-blood ratio ([4]; 4 h p.i.): 118.4 ± 69.4
tumor uptake relative to [68Ga]Ga-PSMA-HBED-CC [4]: nearly two-fold greater
Max. LNCaP Tumor Uptake Time p.i. [4]: 2 h
Max. LNCaP Tumor Uptake ([4]; 2 h p.i.): 10.86 ± 1.03 %ID/g
Max. LNCaP Tumor Uptake ([4]; 2 h p.i., listed as [^18F]RPS-041): > 10 %ID/g
Compound: O=C(O)CC[C@H](NC(=O)N[C@@H](CCCCNC(=O)Nc1ccc(-c2cn(CCF)nn2)cc1)C(=O)O)C(=O)O [RPS-041]

IC50 [3]: 10.2 nM
Max. LNCaP Tumor Uptake Time p.i. [2]: 2 h
Max. LNCaP Tumor Uptake [2]: 10.06 ± 1.33^c %ID/g
Compound: O=C(O)CC[C@H](NC(=O)N[C@@H](CCCCNC(=O)Nc1ccccc1-c1cn(CCF)nn1)C(=O)O)C(=O)O [RPS-042]
route of clearance [2]: clearance via the hepatobiliary pathway in addition to renal excretion

IC50 [3]: 36.5 nM
Max. LNCaP Tumor Uptake Time p.i. [2]: 2 h
Max. LNCaP Tumor Uptake [2]: 9.04 ± 1.88^c %ID/g
Compound: O=C(O)CC[C@H](NC(=O)N[C@@H](CCCCNC(=O)Nc1cccc(OCc2cn(CCF)nn2)c1)C(=O)O)C(=O)O [RPS-043]

Continued, molecule first:

Compound: O=C(O)CCC(NC(=O)NC(CCCCNC(=O)c1ccc([18F])nc1)C(=O)O)C(=O)O (centres unmarked) [DCFPyL, 2-(3-{1-carboxy-5-[(6-[18F]fluoro-pyridine-3-carbonyl)-amino]-pentyl}-ureido)-pentanedioic acid, reference compound]
maximum standardized uptake value (SUVmax) ([1]; LNCaP tumor xenografts, 1 h p.i.): 1.1 ± 0.1
Max. LNCaP Tumor Uptake Time p.i. [2]: 1 h
Max. LNCaP Tumor Uptake [2]: 5.71 ± 0.61^c %ID/g

Compound: O=C(O)CC[C@H](NC(=O)N[C@@H](CCCCNC(=O)Nc1ccc(I)cc1)C(=O)O)C(=O)O [MIP-1095]
Max. LNCaP Tumor Uptake [1]: 34.3 ± 12.7^a %ID/g
Max. LNCaP Tumor Uptake Time p.i. [1]: 4 h
IC50 [3]: 0.3 nM

Compound: O=C(O)CC[C@H](NC(=O)N[C@@H](CCCCNC(=O)Nc1ccc(OCc2cn(CCF)nn2)cc1)C(=O)O)C(=O)O [RPS-038]
IC50 [3]: 21.3 nM
Max. LNCaP Tumor Uptake Time p.i. [2]: 2 h
Max. LNCaP Tumor Uptake [2]: 8.87 ± 0.64^c %ID/g

Compound: O=C(O)CC[C@H](NC(=O)N[C@@H](CCCCNC(=O)Nc1ccccc1OCc1cn(CCF)nn1)C(=O)O)C(=O)O [RPS-039]
IC50 [3]: 14 nM
route of clearance [2]: clearance via the hepatobiliary pathway in addition to renal excretion
Max. LNCaP Tumor Uptake Time p.i. [2]: 2 h
Max. LNCaP Tumor Uptake [2]: 5.89 ± 0.27^c %ID/g

Compound: O=C(O)CC[C@H](NC(=O)N[C@@H](CCCCNC(=O)Nc1cccc(-c2cn(CCF)nn2)c1)C(=O)O)C(=O)O [RPS-040]
IC50 [3]: 7 nM
Max. LNCaP Tumor Uptake [2]: 14.30 %ID/g
tumor-to-blood ratio ([4]; 1 h p.i.): 28.8 ± 8.06
tumor-to-blood ratio relative to [68Ga]Ga-PSMA-HBED-CC ([4]; 1 h p.i.): three-fold greater
tumor-to-kidney ratio relative to [68Ga]Ga-PSMA-HBED-CC ([4]; 1 h p.i.): ten
kidneys uptake [4, 5]: 5.95 ± 1.65 %ID/g
spleen uptake [4, 5]: 0.32 ± 0.05 %ID/g
tumor uptake ([4]; 1 h p.i., co-administered with 2-PMPA (10 mg/kg)): 1.75 ± 0.15 %ID/g
kidneys uptake ([4]; 1 h p.i., unblocked): 74.24 ± 10.71 %ID/g
spleen uptake ([4]; 1 h p.i., unblocked): 4.97 ± 1.55 %ID/g
tumor uptake ([4]; 1 h p.i., unblocked): 12.69 ± 1.56 %ID/g
uptake in the kidneys ([4]; 2 h p.i.): 60.94 ± 8.06 %ID/g
uptake in the liver ([4]; 2 h p.i.): 4.72 ± 0.93 %ID/g
uptake in the spleen ([4]; 2 h p.i.): 3.23 ± 1.26 %ID/g
tumor-to-blood ratio ([4]; 4 h p.i.): 92.93 ± 75.67
tumor uptake relative to [68Ga]Ga-PSMA-HBED-CC [4]: more than two-fold greater
Max. LNCaP Tumor Uptake Time p.i. [4]: 2 h
Max. LNCaP Tumor Uptake ([4]; 2 h p.i.): 14.30 ± 2.49 %ID/g
Max. LNCaP Tumor Uptake ([4]; 2 h p.i., listed as [^18F]RPS-040): > 10 %ID/g
